Measured values from paper PMC2833169, “Anti-malarial activity of a non-piperidine library of next-generation quinoline methanols” (Malaria Journal, 2010).
Values after ≈ are worked out from the molar mass of the structure shown. Where two headings read alike, the source gives them in different places.

What was measured:
[1] = test system: P. falciparum strain W2; experiment: labeled hypoxanthine susceptibility assay, P. falciparum W2; assay type: cell-based, Plasmodium falciparum; details: Plasmodium falciparum, W2, read-out: IC90 Pf W2
Protocol: (§1) The in vitro activities of quinoline methanols against P. falciparum strains W2, D6, TM91C235, and TM90C2A were evaluated using the traditional labeled hypoxanthine assay of Desjardins et al as modified by Milhous et al. These four P. falciparum strains were selected since they have various levels of resistance to conventional anti-malarials.

[2] = test system: P. falciparum strain D6; experiment: labeled hypoxanthine susceptibility assay, P. falciparum D6; assay type: cell-based, Plasmodium falciparum; details: Plasmodium falciparum, D6, read-out: IC90 Pf D6, P. falciparum D6; mefloquine: historical mean +/- SD (n)
Protocol: as §1

[3] = test system: P. falciparum strain TM91C235; experiment: labeled hypoxanthine susceptibility assay, P. falciparum TM91C235; assay type: cell-based, Plasmodium falciparum; details: Plasmodium falciparum, read-out: IC90 Pf C235
Protocol: as §1

[4] = test system: P. falciparum strain TM90C2A; experiment: labeled hypoxanthine susceptibility assay, P. falciparum TM90C2A; assay type: cell-based, Plasmodium falciparum; details: Plasmodium falciparum, TM90C2A
Protocol: as §1

[5] = in vitro; details: mouse
Protocol: (§2) General cytotoxicity was assessed by first determining LC50 's against a rodent macrophage (RAW) cell line using the 3-(4,5-dimethylthiazole-2-yl)-2,5-diphenyltetrazolium bromide (MTT) assay as described in one of our earlier studies. This screen was conducted to identify compounds that may require de-selection due to generalized toxicity. […] In vitro neurocytotoxicity was assessed by determining LC50s against primary mouse neurons using the MTT assay as described previously. Inhibition of the A2A and A1 receptors was determined at 200 nM in duplicate by Caliper Biosciences (Hanover, Maryland).

[6] = in vitro; details: mouse; remark: listed apart in the source
Protocol: as §2

[7] = target: T1, A2A receptor (Homo sapiens, UniProt P29274); experiment: inhibition of the A2A receptor at 200 nM; assay type: binding; details: read-out: % A2A inhibition at 200 nM
T1 construct: Caliper Biosciences (contract screen)
Protocol: as §2

[8] = target: T2, A1 receptor (Homo sapiens, UniProt P30542); experiment: inhibition of the A1 receptor at 200 nM; assay type: binding; details: duplicate
T2 construct: Caliper Biosciences (contract screen)
T2 sequence (P30542 1-326): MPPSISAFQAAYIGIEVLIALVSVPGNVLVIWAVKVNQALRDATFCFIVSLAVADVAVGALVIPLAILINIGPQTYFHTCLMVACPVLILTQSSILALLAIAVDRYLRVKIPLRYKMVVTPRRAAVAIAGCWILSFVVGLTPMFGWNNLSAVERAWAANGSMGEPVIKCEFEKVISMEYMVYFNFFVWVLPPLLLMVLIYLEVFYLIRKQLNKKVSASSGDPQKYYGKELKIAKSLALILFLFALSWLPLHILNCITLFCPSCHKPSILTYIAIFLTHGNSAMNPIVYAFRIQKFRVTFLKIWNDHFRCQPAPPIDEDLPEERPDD
Protocol: as §2

[9] = test system: MDR1-transfected MDCK cell monolayers; experiment: apparent permeability across MDR1-MDCK cell monolayers
Protocol: (§3) For this reason, the apparent permeability of selected compounds across MDR1-transfected MDCK cell monolayers was determined. This assay is an in vitro surrogate of the blood-brain barrier.
(§4) Permeability was determined by Absorption Systems (Exton, PA). MDR1-MDCK cell monolayers were grown to confluence on collagen-coated, microporous, polycarbonate membranes in 12-well Costar Transwell plates. […] The permeability assay buffer was Hanks Balanced Salt Solution containing 10 mM HEPES and 15 mM glucose at a pH of 7.4. A known p-glycoprotein inhibitor cyclosporin A (CSA) was also added to the assay buffer at 10 μM. Bovine serum albumin (1%) was added to the receiver well. The dosing solution concentrations of the test compounds were 5.0 μM in the assay buffer. All cell monolayers were first pre-incubated for 30 minutes with assay buffer. After 30 minutes, the buffer was removed, replaced with fresh buffer, and time was recorded as 0. […] Cell monolayers were dosed on the apical side (A-to-B) or basolateral side (B-to-A) and incubated at 37°C with 5% CO2 in a humidified incubator. After 2 hours, aliquots were taken from the receiver chambers. Samples were taken from the donor chamber at 0 and 2 hours. Each determination was performed in duplicate. The lucifer yellow flux was also measured for each monolayer to ensure no damage was inflicted to the cell monolayers during the flux period. All samples were assayed by LC/MS/MS using electrospray ionization.
(§5) Apparent permeability in the apical (A-B direction), PappA-B, and percent recovery are reported. Apparent permeability is a measure of the rate of transport across the cell monolayer. Percent recovery refers to the amount of compound recoverable at the end of the assay. Low recovery may indicate non-specific binding to assay plates, instability or accumulation in the cell pellet.
(§6) The apparent permeability, Papp, and percent recovery were calculated as follows:
(§7) Papp = (dCr/dt) × Vr/(A × C0) (1)
(§8) Percent Recovery = 100 × ((Vr × Cr^final) + (Vd × Cd^final))/(Vd × […]) (2)

[10] = metabolic stability in mouse liver microsomes; assay type: in vitro ADME
Protocol: Interesting compounds were also submitted for drug-drug interaction and metabolic stability assays. Low IC50s against specific cytochrome P450 isoforms may indicate the potential for a harmful drug interaction to occur in vivo with substrates of that isoform. A lack of metabolic stability in vitro may indicate potential metabolic instability in vivo, and, therefore, a shorter half-life. Drug interaction potential was evaluated in vitro using BD Gentest (Franklin Lakes, NJ) CYP450 inhibition kits as recommended by the manufacturer. Metabolic stability assessments were conducted using in vitro liver microsomes. […] The reaction is started with the addition of 1 U/mL glucose-6-phosphate dehydrogenase G6PD. The mixture is incubated on a shaking platform at 37°C, and aliquots are taken and quenched with the addition of an equal volume of cold acetonitrile at 0, 10, 20, 30, and 60 min. Samples are centrifuged at 3700 rpm for […] at 20°C to remove debris. Sample quantification is carried out by LC/MS, and metabolic half-life is calculated by log plots of the total ion chromatograph area remaining.

[11] = in vitro; details: dog, MDCK-MDR1, pH 7.4
Protocol: as §3, §4, §5, §6, §7, §8

T1 sequence (P29274 whole entry): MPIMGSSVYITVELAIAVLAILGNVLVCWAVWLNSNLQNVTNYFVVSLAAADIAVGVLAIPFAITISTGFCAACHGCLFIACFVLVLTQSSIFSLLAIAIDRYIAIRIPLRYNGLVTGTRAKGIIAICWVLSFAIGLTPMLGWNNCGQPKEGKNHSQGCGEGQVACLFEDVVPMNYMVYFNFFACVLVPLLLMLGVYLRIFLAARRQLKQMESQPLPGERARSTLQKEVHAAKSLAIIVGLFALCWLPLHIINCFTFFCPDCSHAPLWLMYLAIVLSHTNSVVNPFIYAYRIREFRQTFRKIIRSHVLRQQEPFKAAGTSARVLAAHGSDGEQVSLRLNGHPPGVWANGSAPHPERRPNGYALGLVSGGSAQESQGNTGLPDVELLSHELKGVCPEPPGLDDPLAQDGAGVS

| Compound | IC90 [1] [µg/mL] | IC90 [2] [µg/mL] | IC90 [3] [µg/mL] | IC90 ([4]; read-out: IC90 Pf C2A) [µg/mL] | IC90 ([4]; read-out: IC90 PfC2A) [µM] | CC50 [5] [µg/mL] | CC50 [6] [µM] | inhibition at 0.2 µM [7] [%] | inhibition at 0.2 µM [8] [%] | PappA-B MDCK-MDR1 ([9]; apical (A-B) direction, 5.0 μM, 10 μM cyclosporin A, 2 h, mefloquine average of n = 3) | % recovery (MDCK-MDR1 permeability assay) ([9]; compound recoverable at end of assay) [%] | HL in Microsomes ([10]; 1 μM, pH 7.4) [min] | half-life at 1 μM ([10]; mouse, microsomes, pH 7.4) [h] | Papp A→B at 2 h, 5 μM [11] [×10⁻⁶ cm/s] | % recovery (MDCK-MDR1 permeability assay) ([9]; dog, MDCK-MDR1, 2 h, 5 μM, pH 7.4) [%] | HL in Microsomes ([10]; Figure 3, species of microsomes not given) [min] |
| --- | --- | --- | --- | --- | --- | --- | --- | --- | --- | --- | --- | --- | --- | --- | --- | --- |
| OC(c1cc(C(F)(F)F)nc2c(C(F)(F)F)cccc12)C1CCCCN1 (stereo not drawn) [Mefloquine, mefloquine, reference compound] | 0.0062 ± 0.0028 (≈ 0.0164 µM) | 0.017 ± 0.011 (≈ 0.0449 µM) | 0.052 ± 0.03 (≈ 0.137 µM) | 0.074 ± 0.032 | 0.171 | 3.72 ± 1.51 (≈ 9.84 µM) | 41 | 62 | 4 | 9.4 10^-6 cm/s | < 40 | > 60 | > 1 |  |  |  |
| OC(CNCC12CCC(C1)NC2)c1cc(C(F)(F)F)nc2c(C(F)(F)F)cccc12 (stereo not drawn) [WR319535/581] | 0.275 (≈ 0.635 µM) | 0.075 (≈ 0.173 µM) | 0.26 (≈ 0.6 µM) | 0.251 |  | 4.11 (≈ 9.48 µM) |  |  |  |  |  |  |  | 2 | 52 | > 60 |
